Literature values as cited in patent publication US20170333389A1, “Method of Ameliorating Clotting Pathologies and Related Materials and Methods” (The Ohio State University, priority 2012, published 2017).

Key:
[1] = system: recurrent stroke
[2] = system: platelet aggregation; details: low-dose aspirin (81 mg) treated healthy volunteers
[3] = patients who have had a TIA or stroke

In the case of `CC(=O)Oc1ccccc1C(=O)O` [aspirin], the “decrease of relative risk of non-fatal ischemic stroke” value [1, 3] is listed as 19%, the “decrease of relative risk of recurrent stroke, myocardial infarction, and vascular death” value [1, 3] is listed as 13% and the “platelet function recovery after withdrawal” value [2] is listed as 48 to 72 h.

In the case of `CC(C)c1c(C(=O)Nc2ccccc2)c(-c2ccccc2)c(-c2ccc(F)cc2)n1CC[C@@H](O)C[C@@H](O)CC(=O)O` [atorvastatin], the “decrease of risk of recurrent stroke” value ([1]; patients with stroke, high dose, over 5 years) is listed as “about 2%”.

In the case of `CC(=O)CC(c1ccccc1)c1c(O)c2ccccc2oc1=O` (centres unmarked) [warfarin], the “decrease of relative stroke risk” value ([1]; patients with stroke due to atrial fibrillation, dose-adjusted) is given as 62%.
